The source of these data is patent US20240217957A1, “HETEROCYCLIC COMPOUND AND USE THEREOF” (TAKEDA PHARMACEUTICAL COMPANY LIMITED, priority 2022, published 2024).

Molecules are shown by their SMILES.

The target of the assay is T1, human OX2 receptor (Homo sapiens, UniProt O43614).
T1 construct: expressed in transfected cells
T1 sequence (O43614 1-444): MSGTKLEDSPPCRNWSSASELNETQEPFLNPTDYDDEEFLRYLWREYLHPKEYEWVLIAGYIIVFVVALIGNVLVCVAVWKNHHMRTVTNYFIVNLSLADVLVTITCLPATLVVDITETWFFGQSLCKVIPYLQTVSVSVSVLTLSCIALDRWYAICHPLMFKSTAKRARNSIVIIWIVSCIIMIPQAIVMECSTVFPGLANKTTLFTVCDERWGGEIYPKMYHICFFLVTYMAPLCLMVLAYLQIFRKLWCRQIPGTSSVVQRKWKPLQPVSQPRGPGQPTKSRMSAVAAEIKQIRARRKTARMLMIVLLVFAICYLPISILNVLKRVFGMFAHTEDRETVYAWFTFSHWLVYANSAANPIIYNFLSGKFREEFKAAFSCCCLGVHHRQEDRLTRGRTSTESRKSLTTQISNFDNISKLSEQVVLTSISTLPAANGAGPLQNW
Nature of the assay: Measurement of orexin type 2 receptor agonist activity (calcium fluorescence, Fluo-4 AM, FDSS). In kind it is cell-based. The note with it: compound at 3 μM; CHO cells forcibly expressing human OX2 receptor; DMSO = 0%, 10 nM orexin A (human) = 100%. In outline:
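Agonist response is expressed as % of the fluorescence change given by 10 nM human orexin A, with DMSO as 0%, read over 1 min 40 s on FDSS after compound addition. Cells: stable human OX2 (1-444) CHO-K1 clones, dye-loaded with Fluo-4 AM plus probenecid in HEPES-buffered HBSS with 0.1% BSA.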
Regarding `Cc1cnc(C2(C)CC(N3C[C@@H](NS(C)(=O)=O)C(F)(F)C3)=NO2)c(-c2c(F)cc(F)cc2F)c1` (stereo partly drawn) [Example 10, N-[(3R)-4,4-difluoro-1-{5-methyl-5-[5-methyl-3-(2,4,6-trifluorophenyl)pyridin-2-yl]-4,5-dihydro-1,2-oxazol-3-yl}pyrrolidin-3-yl]methanesulfonamide], the “OX2R agonist activity (3 μM, %)” value turned out to be 102%.

Take `CS(=O)(=O)N[C@@H]1CN(C2=NOC(c3c(F)ccc(F)c3-c3c(F)cccc3F)C2)C[C@@H]1F` (stereo partly drawn) [Example 159, N-{(3R,4S)-4-fluoro-1-[5-(2′,3,6,6′-tetrafluoro[1,1′-biphenyl]-2-yl)-4,5-dihydro-1,2-oxazol-3-yl]pyrrolidin-3-yl}methanesulfonamide]: the “OX2R agonist activity (3 μM, %)” value is reported as 99%.

On to `Cc1cnc(C2CC(N3CC(F)(F)C3CNS(C)(=O)=O)=NO2)c(-c2c(F)cc(F)cc2F)c1` (stereo not shown) [Example 17, N-[(3,3-difluoro-1-{5-[5-methyl-3-(2,4,6-trifluorophenyl)pyridin-2-yl]-4,5-dihydro-1,2-oxazol-3-yl}azetidin-2-yl)methyl]methanesulfonamide], for which the “OX2R agonist activity (3 μM, %)” value stood at 80%.

For `Cc1cnc([C@@H]2CC(N3C[C@@H](NS(=O)(=O)C(F)F)C(F)(F)C3)=NO2)c(-c2c(F)cc(F)cc2F)c1` [Example 60, N-[(3R)-4,4-difluoro-1-{(5S)-5-[5-methyl-3-(2,4,6-trifluorophenyl)pyridin-2-yl]-4,5-dihydro-1,2-oxazol-3-yl}pyrrolidin-3-yl]-1,1-difluoromethanesulfonamide], the “OX2R agonist activity (3 μM, %)” value is given as 105%.

As for `Cc1cnc([C@@H]2CC(N3C[C@@H](NS(=O)(=O)C(F)F)C(F)(F)C3)=NO2)c(-c2c(F)cccc2F)c1` [Example 31, N-[(3R)-1-{(5S)-5-[3-(2,6-difluorophenyl)-5-methylpyridin-2-yl]-4,5-dihydro-1,2-oxazol-3-yl}-4,4-difluoropyrrolidin-3-yl]-1,1-difluoromethanesulfonamide], the “OX2R agonist activity (3 μM, %)” value is listed as 104%.

On to `CS(=O)(=O)N[C@@H]1CN(C2=NOC(CF)(c3ncc(F)cc3-c3c(F)cc(F)cc3F)C2)C[C@@H]1F` (stereo partly drawn) [Example 113, N-[(3R,4S)-4-fluoro-1-{5-(fluoromethyl)-5-[5-fluoro-3-(2,4,6-trifluorophenyl)pyridin-2-yl]-4,5-dihydro-1,2-oxazol-3-yl}pyrrolidin-3-yl]methanesulfonamide], for which the “OX2R agonist activity (3 μM, %)” value was 100%.

In the case of `Cc1cnc([C@@H]2CC(N3C[C@H](F)[C@H](NS(C)(=O)=O)C3)=NO2)c(-c2c(F)cc(F)cc2F)c1` [Example 57, N-[(3R,4S)-4-fluoro-1-{(5S)-5-[5-methyl-3-(2,4,6-trifluorophenyl)pyridin-2-yl]-4,5-dihydro-1,2-oxazol-3-yl}pyrrolidin-3-yl]methanesulfonamide], the “OX2R agonist activity (3 μM, %)” value turned out to be 105%.

Regarding `CN(C)S(=O)(=O)N[C@@H]1CN(C2=NOC(c3ncc(F)cc3-c3c(F)cc(F)cc3F)C2)C[C@@H]1F` (stereo partly drawn) [Example 120, N′-[(3R,4S)-4-fluoro-1-{5-[5-fluoro-3-(2,4,6-trifluorophenyl)pyridin-2-yl]-4,5-dihydro-1,2-oxazol-3-yl}pyrrolidin-3-yl]-N,N-dimethylsulfuric diamide], the “OX2R agonist activity (3 μM, %)” value is 102%.

For `CC1(c2ncc(Cl)cc2-c2ncc(F)cc2F)CC(N2C[C@@H](NS(C)(=O)=O)C(F)(F)C2)=NO1` (stereo partly drawn) [Example 152, N-{(3R)-1-[5-(5′-chloro-3,5-difluoro[2,3′-bipyridin]-2′-yl)-5-methyl-4,5-dihydro-1,2-oxazol-3-yl]-4,4-difluoropyrrolidin-3-yl}methanesulfonamide], the “OX2R agonist activity (3 μM, %)” value is 107%.

For the molecule `Cc1cnc([C@@H]2CC(N3CC[C@H](NS(=O)(=O)C(C)F)C3)=NO2)c(-c2c(F)cc(F)cc2F)c1` (stereo partly drawn) [Example 100, 1-fluoro-N-[(3S)-1-{(5S)-5-[5-methyl-3-(2,4,6-trifluorophenyl)pyridin-2-yl]-4,5-dihydro-1,2-oxazol-3-yl}pyrrolidin-3-yl]ethane-1-sulfonamide], the “OX2R agonist activity (3 μM, %)” value was 99%.

With `CS(=O)(=O)N[C@@H]1CN(C2=NOC(CO)(c3ncc(F)cc3-c3c(F)cc(F)cc3F)C2)CC1(F)F` (stereo partly drawn) [Example 15, N-[(3R)-4,4-difluoro-1-{5-[5-fluoro-3-(2,4,6-trifluorophenyl)pyridin-2-yl]-5-(hydroxymethyl)-4,5-dihydro-1,2-oxazol-3-yl}pyrrolidin-3-yl]methanesulfonamide], the “OX2R agonist activity (3 μM, %)” value is reported as 92%.

For the molecule `Cc1cnc([C@@H]2CC(N3CC[C@H](NS(=O)(=O)CF)C3)=NO2)c(-c2c(F)cccc2F)c1` [Example 38, N-[(3S)-1-{(5S)-5-[3-(2,6-difluorophenyl)-5-methylpyridin-2-yl]-4,5-dihydro-1,2-oxazol-3-yl}pyrrolidin-3-yl]-1-fluoromethanesulfonamide], the “OX2R agonist activity (3 μM, %)” value stood at 104%.

With `C[C@]1(F)CN(C2=NOC(c3c(F)ccc(F)c3-c3c(F)cccc3F)C2)C[C@H]1NS(C)(=O)=O` (single isomer, unassigned) [Example 168], the “OX2R agonist activity (3 μM, %)” value turned out to be 103%.

Turning to `CCS(=O)(=O)N[C@@H]1CN(C2=NOC(COC)(c3ncc(F)cc3-c3c(F)cccc3F)C2)C[C@@H]1F` (stereo partly drawn) [Example 132, N-[(3R,4S)-1-{5-[3-(2,6-difluorophenyl)-5-fluoropyridin-2-yl]-5-(methoxymethyl)-4,5-dihydro-1,2-oxazol-3-yl}-4-fluoropyrrolidin-3-yl]ethanesulfonamide], the “OX2R agonist activity (3 μM, %)” value is given as 110%.

For `Cc1cn(-c2c(F)cccc2F)c(C2(C)CC(N3C[C@@H](NS(C)(=O)=O)C(F)(F)C3)=NO2)n1` (stereo partly drawn) [Example 12, N-[(3R)-1-{5-[1-(2,6-difluorophenyl)-4-methyl-1H-imidazol-2-yl]-5-methyl-4,5-dihydro-1,2-oxazol-3-yl}-4,4-difluoropyrrolidin-3-yl]methanesulfonamide], the “OX2R agonist activity (3 μM, %)” value stood at 71%.

`CS(=O)(=O)N[C@@H]1CN(C2=NOC(CF)(c3ncc(C(F)F)cc3-c3c(F)cccc3F)C2)CC1(F)F` (stereo partly drawn) [Example 153, N-[(3R)-1-{5-[5-(difluoromethyl)-3-(2,6-difluorophenyl)pyridin-2-yl]-5-(fluoromethyl)-4,5-dihydro-1,2-oxazol-3-yl}-4,4-difluoropyrrolidin-3-yl]methanesulfonamide]: the “OX2R agonist activity (3 μM, %)” value amounted to 96%.

As to `Cc1cnc(C2CC([C@@H]3CC[C@H](NS(C)(=O)=O)C3)=NO2)c(-c2c(F)cc(F)cc2F)c1` (stereo partly drawn) [Example 19, N-[(1S,3R)-3-{5-[5-methyl-3-(2,4,6-trifluorophenyl)pyridin-2-yl]-4,5-dihydro-1,2-oxazol-3-yl}cyclopentyl]methanesulfonamide], the “OX2R agonist activity (3 μM, %)” value amounted to 92%.

For `COc1cccc(F)c1-c1cc(C)cc(F)c1C1CC(N2C[C@@H](NS(C)(=O)=O)C(F)(F)C2)=NO1` (stereo partly drawn) [Example 175, N-{(3R)-1-[5-(2′,3-difluoro-6′-methoxy-5-methyl[1,1′-biphenyl]-2-yl)-4,5-dihydro-1,2-oxazol-3-yl]-4,4-difluoropyrrolidin-3-yl}methanesulfonamide], the “OX2R agonist activity (3 μM, %)” value came out at 112%.

Turning to `CN(C)S(=O)(=O)N[C@@H]1CN(C2=NOC(c3ccc(Cl)cc3-c3ncc(F)cc3F)C2)C[C@@H]1F` (stereo partly drawn) [Example 123, N′-[(3R,4S)-1-{5-[4-chloro-2-(3,5-difluoropyridin-2-yl)phenyl]-4,5-dihydro-1,2-oxazol-3-yl}-4-fluoropyrrolidin-3-yl]-N,N-dimethylsulfuric diamide], the “OX2R agonist activity (3 μM, %)” value turned out to be 100%.

As to `Cc1cc(-c2c(F)cccc2F)c(C2CC(N3C[C@@H](NS(C)(=O)=O)C(F)(F)C3)=NO2)cn1` (stereo partly drawn) [Example 127, N-[(3R)-1-{5-[4-(2,6-difluorophenyl)-6-methylpyridin-3-yl]-4,5-dihydro-1,2-oxazol-3-yl}-4,4-difluoropyrrolidin-3-yl]methanesulfonamide], the “OX2R agonist activity (3 μM, %)” value is 100%.

Consider `Cc1cnc(C2CC(N3C[C@@H](NS(C)(=O)=O)C(F)(F)C3)=NO2)c(-c2c(F)cccc2F)c1` (stereo partly drawn) [Example 21, N-[(3R)-1-{5-[3-(2,6-difluorophenyl)-5-methylpyridin-2-yl]-4,5-dihydro-1,2-oxazol-3-yl}-4,4-difluoropyrrolidin-3-yl]methanesulfonamide], for which the “OX2R agonist activity (3 μM, %)” value was 100%.

With `CCS(=O)(=O)N[C@H]1CCN(C2=NOC(c3cc(C(F)(F)F)nn3-c3c(F)cccc3F)C2)C1` (stereo partly drawn) [Example 9, N-[(3S)-1-{5-[1-(2,6-difluorophenyl)-3-(trifluoromethyl)-1H-pyrazol-5-yl]-4,5-dihydro-1,2-oxazol-3-yl}pyrrolidin-3-yl]ethanesulfonamide], the “OX2R agonist activity (3 μM, %)” value amounted to 13%.
